Test results published in ChEMBL document CHEMBL3785088, “Synthesis, anti-inflammatory, analgesic and COX-1/2 inhibition activities of anilides based on 5,5-diphenylimidazolidine-2,4-dione scaffold: Molecular docking studies” (Eur J Med Chem, 2016).

What was measured:
Rattus norvegicus = assay: Antiinflammatory activity in ip dosed Sprague-Dawley rat assessed as inhibition of carrageenan-induced foot paw edema measured 2 hrs post carrageenan challenge by plethysmometry; format: functional
Mus musculus = assay: Analgesic activity in ip dosed albino Swiss mouse assessed as reduction in licking and blowing response at 58 deg C measured after 60 mins by hot plate test; format: functional; conditions: 1 h
[1] = target: T1, Prostaglandin G/H synthase 1 (Ovis aries, UniProt P05979); assay: Inhibition of ovine COX1 preincubated for 5 mins followed by addition of arachidonic acid as substrate measured after 2 mins by enzyme immunoassay
T1 sequence (P05979 whole entry): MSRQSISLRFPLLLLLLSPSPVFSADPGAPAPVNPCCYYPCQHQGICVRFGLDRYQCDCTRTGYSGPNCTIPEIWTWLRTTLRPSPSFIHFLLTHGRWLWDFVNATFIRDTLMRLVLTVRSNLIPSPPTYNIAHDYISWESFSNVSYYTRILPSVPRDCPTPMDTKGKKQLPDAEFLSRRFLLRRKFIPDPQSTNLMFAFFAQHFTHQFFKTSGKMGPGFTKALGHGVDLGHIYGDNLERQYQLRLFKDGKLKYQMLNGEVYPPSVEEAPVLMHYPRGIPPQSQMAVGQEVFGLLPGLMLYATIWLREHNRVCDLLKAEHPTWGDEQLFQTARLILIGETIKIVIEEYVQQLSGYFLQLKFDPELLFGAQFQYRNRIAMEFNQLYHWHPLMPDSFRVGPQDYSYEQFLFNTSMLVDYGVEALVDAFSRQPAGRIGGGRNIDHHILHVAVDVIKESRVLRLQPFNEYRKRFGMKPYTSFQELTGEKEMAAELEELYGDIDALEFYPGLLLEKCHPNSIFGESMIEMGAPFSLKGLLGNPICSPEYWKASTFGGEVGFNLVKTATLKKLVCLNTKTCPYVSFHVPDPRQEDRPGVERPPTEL

Row | SMILES | ED50 (Rattus norvegicus) [mg/kg] | ED50 (Mus musculus) [mg/kg] | IC50 [1] [µM]
1 | COc1ccc(NC(=O)CN2C(=O)NC(c3ccccc3)(c3ccccc3)C2=O)cc1 | 120 | 86 | > 100
2 | O=C(CN1C(=O)NC(c2ccccc2)(c2ccccc2)C1=O)NCc1ccc(F)cc1 | 120 | 90.9 | > 100
3 | O=C(CN1C(=O)NC(c2ccccc2)(c2ccccc2)C1=O)NCc1ccccc1 | > 200 |  | 
4 | COc1ccc(CNC(=O)CN2C(=O)NC(c3ccccc3)(c3ccccc3)C2=O)cc1 | 109 | 67.3 | > 100
5 | NS(=O)(=O)c1ccc(NC(=O)CCN2C(=O)NC(c3ccccc3)(c3ccccc3)C2=O)cc1 | 75 | 40.3 | > 100
6 | O=C(CCN1C(=O)NC(c2ccccc2)(c2ccccc2)C1=O)Nc1ccc(F)cc1 | 123 | 80.1 | > 100
7 | NS(=O)(=O)c1ccc(NC(=O)CN2C(=O)NC(c3ccccc3)(c3ccccc3)C2=O)cc1 | 97 | 66.2 | > 100
8 | O=C(CN1C(=O)NC(c2ccccc2)(c2ccccc2)C1=O)c1ccc(F)cc1 | 156 | 142 | 70.5
9 | COc1ccc(/C=N/NC(=O)CN2C(=O)NC(c3ccccc3)(c3ccccc3)C2=O)cc1 | > 200 |  | 
10 | COc1ccc(/C=N/N2C(=O)NC(c3ccccc3)(c3ccccc3)C2=O)cc1 | > 200 |  | 
11 | COc1ccc(C(=O)CN2C(=O)NC(c3ccccc3)(c3ccccc3)C2=O)cc1 | 155 | 184 | 70.5
12 | O=C(CCN1C(=O)NC(c2ccccc2)(c2ccccc2)C1=O)NCc1ccccc1 | > 200 |  | 
13 | O=C(CN1C(=O)NC(c2ccccc2)(c2ccccc2)C1=O)N/N=C/c1ccccc1 | > 200 |  | 
14 | O=C(CN1C(=O)NC(c2ccccc2)(c2ccccc2)C1=O)Nc1ccccc1 | > 200 |  | 
15 | O=C(CCN1C(=O)NC(c2ccccc2)(c2ccccc2)C1=O)Nc1ccccc1 | > 200 |  | 
16 | COc1ccc(NC(=O)CCN2C(=O)NC(c3ccccc3)(c3ccccc3)C2=O)cc1 | 98 | 71.1 | > 100
17 | NS(=O)(=O)c1ccc(CNC(=O)CN2C(=O)NC(c3ccccc3)(c3ccccc3)C2=O)cc1 | 75 | 54.6 | > 100
18 | COc1ccc(CNC(=O)CCN2C(=O)NC(c3ccccc3)(c3ccccc3)C2=O)cc1 | 112 | 122 | > 100
19 | O=C(CN1C(=O)NC(c2ccccc2)(c2ccccc2)C1=O)N/N=C/c1ccc(F)cc1 | > 200 |  | 
20 | COc1cc(CNC(=O)CN2C(=O)NC(c3ccccc3)(c3ccccc3)C2=O)cc(OC)c1OC | 90 | 68.5 | > 100
21 | O=C(CN1C(=O)NC(c2ccccc2)(c2ccccc2)C1=O)Nc1ccc(F)cc1 | 129 | 119 | > 100
22 | O=C(CCN1C(=O)NC(c2ccccc2)(c2ccccc2)C1=O)NCc1ccc(F)cc1 | 122 | 75 | > 100
23 | O=C(CN1C(=O)NC(c2ccccc2)(c2ccccc2)C1=O)c1ccccc1 | > 200 |  | 
24 | Cc1ccc(-c2cc(C(F)(F)F)nn2-c2ccc(S(N)(=O)=O)cc2)cc1 [CELECOXIB] | 86.4 | 74.1 | 
